Three molecules from patent US10539566B2, “Use of markers including filamin A in the diagnosis and treatment of prostate cancer” (Berg LLC, priority 2014, dated 2020) can be followed below.

Type in all cases: cell-based, human
In experiment [1] the test system is LnCAP, DU145, and PC-3 cells. In words: Quantitative RT-PCR of FLNA, FLNB and KRT19 expression after prostate-relevant stimuli. The settings on record: 24 h, DU145, PC-3 cells. How it is done: Specifically, mRNA was prepared from LnCAP, DU145, and PC-3 cells exposed to hypoxia (1% oxygen; A), TNFα (10 ng/mL; B), or R1881 (1 nM; C) for 24 h. Expression of FLNA, FLNB, and KRT19 was assessed by quantitative RT-PCR, normalized to TBP, and compared to PSA. Values represent means+SEM, N=3. * p<0.05 compared to normoxia/control.

In experiment [2] the test system is LnCAP cell line and PC3 cell line. Briefly: Wet lab assays measuring mitochondrial ROS, ATP and caspase 3 activation. The settings on record: LnCAP and PC3 cells treated with ubidecarenone.
A further experiment relates to PC3 cells. Briefly: Causal protein networks from 2D LC-MS proteomics of prostate cancer cells treated with ubidecarenone. The settings on record: upon treatment with ubidecarenone. The source says:
An interrogative systems biology based discovery platform (i.e., Interrogative Platform Technology or a.k.a. Interrogative Biology™) disclosed in WO2012119129 (incorporated herein by reference), and shown schematically in FIG. 1, provides new mechanistic insights into understanding mitochondrial role in behavior of prostate cancer cells. The discovery platform involves discovery across a hierarchy of systems including in vitro human cell based models and human serum samples from prostate cancer patients and downstream data integration and mathematical modeling employing an Artificial Intelligence (AI) based informatic module. For cellular models, androgen sensitive LnCAP cell line and metastatic, androgen refractory PC3 cell line were treated with ubidecarenone (coenzyme Q10) in order to engage the mitochondrial machinery. Proteomic signatures were captured using a 2D LC-MS orbitrap technology. Total protein signatures were input to an AI based informatics module to generate causal protein networks (FIG. 2).
The keratin 8/15 association was lost upon treatment with ubidecarenone, and a direct association of keratins 7 and 15 was established (FIG. 3).

As for `C[C@]1(O)CC[C@H]2[C@@H]3CCC4=CC(=O)CCC4=C3C=C[C@@]21C` [R1881], in experiment [1] (R1881 1 nM), the “global regulation of FLNA, FLNB, and KRT19 expression (mRNA, normalized to TBP)” value is “remained unaltered”. In the case of `COC1=C(OC)C(=O)C(C/C=C(\C)CC/C=C(\C)CC/C=C(\C)CC/C=C(\C)CC/C=C(\C)CC/C=C(\C)CC/C=C(\C)CC/C=C(\C)CC/C=C(\C)CCC=C(C)C)=C(C)C1=O` [ubidecarenone], the “intracellular levels of mitochondrial ROS, ATP and caspase 3 activation” value in experiment [2] is “confirmed changes in intracellular levels”. In the experiment with PC3 cells, the “direct association of keratins 7 and 15 in causal protein maps” value is reported as “established”; the “keratin 8/15 association in causal protein maps” value is listed as “lost”. For TNFα, in experiment [1] (TNFα 10 ng/mL), the “global regulation of FLNA, FLNB, and KRT19 expression (mRNA, normalized to TBP)” value is “remained unaltered”.
